≈ marks a conversion by molar mass, not a printed value. Where a name gives a salt, the structure may show the parent alone.
Test system: P. mirabilis 889
Test: MIC against P. mirabilis 889
Format: cell-based
Conditions: for MIC: Proteus mirabilis, 889, P. mirabilis 889

SMILES	MIC [µg/mL]	MIC against P. mirabilis 889 (P. mirabilis 889) [µg/mL]
CC1(C)S[C@H]2N(C(=O)[C@@]2(NC=O)NC(=O)[C@H](NC(=O)N2CCN(S(C)(=O)=O)C2=O)c2ccc(O)cc2)[C@H]1C(=O)O [Example 24, 6α-Formamido-6β-[D-2-(4-hydroxyphenyl)-2-[(3-methylsulphonyl-2-oxoimidazolidin-1-yl)carbonylamino]acetamido]penicillanic acid, sodium salt]	0.1	–
CN(C(=O)N[C@@H](C(=O)N[C@]1(NC=O)C(=O)N2[C@@H](C(=O)O)C(C)(C)S[C@@H]21)c1ccccc1)C(=O)c1cccs1 [Example 13, 6α-Formamido-6β-[D-2-[3-methyl-3-(2-thienylcarbonyl)ureido]-2-phenylacetamido]penicillanic acid, sodium salt]	2.5	–
Cc1ccc2c(O)c(C(=O)N[C@@H](C(=O)N[C@]3(NC=O)C(=O)N4[C@@H](C(=O)O)C(C)(C)S[C@@H]43)c3ccc(O)cc3)cnc2n1 [Example 49, 6α-Formamido-6β-[D-2-[(4-hydroxy-7-methyl-1,8-naphthyridin-3-yl)carbonylamino]-2-(4-hydroxyphenyl)acetamido]penicillanic acid, sodium salt]	5	–
CC(=O)OCC1=C(C(=O)O)N2C(=O)[C@@](NC=O)(NC(=O)/C(=N\OC(C)(C)C(=O)O)c3csc(N)n3)[C@H]2SC1 [Example 67, 7β-[(Z)-2-(2-Aminothiazol-4-yl)-2-(1-carboxy-1-methylethoxyimino)acetamido]-7α-formamidocephalosporanic acid disodium salt]	30	–
CC(=O)OCC1=C(C(=O)O)N2C(=O)[C@@](NC=O)(NC(=O)Cc3cccs3)[C@H]2SC1 [Example 42, 7α-Formamido-7β-(thien-2-ylacetamido)cephalosporanic acid, sodium salt]	10	–
CCN1CCN(C(=O)NC(C(=O)N[C@]2(NC=O)C(=O)N3C(C(=O)O)=C(CSc4nnnn4C)CS[C@@H]32)c2ccc(OC(C)=O)c(OC(C)=O)c2)C(=O)C1=O (single isomer, unassigned) [Example 57 (isomer 2), 7β-[2-(3,4-Diacetoxyphenyl)-2-[(4-ethyl-2,3-dioxopiperazin-1-yl)carbonylamino]acetamido]-7α-formamido-3-[(1-methyl-1H-tetrazol-5-yl)thiomethyl]ceph-3-em-4-carboxylic acid, sodium salt, isomer 2]	0.1	–
CC1(C)S[C@H]2N(C(=O)[C@@]2(NC=O)NC(=O)C(NC(=O)c2cc3ccccc3oc2=O)c2ccc(O)cc2)[C@H]1C(=O)O (stereo partly drawn) [Example 22, 6β-[2-[(Coumarin-3-yl)carbonylamino]-2-(4-hydroxyphenyl)acetamido]-6α-formamidopenicillanic acid, sodium salt]	10	–
CC1(C)S[C@H]2N(C(=O)[C@@]2(NC=O)NC(=O)[C@H](NC(=O)Nc2cnc(Nc3ccccc3)nc2O)c2ccc(O)cc2)[C@H]1C(=O)O [Example 32, 6α-Formamido-6β-[D-2-(4-hydroxyphenyl)-2-[3-[4-hydroxy-2-(phenylamino)pyrimidin-5-yl]ureido]acetamido]penicillanic acid, sodium salt]	5	–
CCOC(=O)c1[nH]cnc1C(=O)N[C@@H](C(=O)N[C@]1(NC=O)C(=O)N2[C@@H](C(=O)O)C(C)(C)S[C@@H]21)c1ccc(O)cc1 [Example 25, 6β-[D-2-[(5-Ethoxycarbonylimadazol-4-yl)carbonylamino]-2-(4-hydroxyphenyl)acetamido]-6α-formamidopenicillanic acid, sodium salt]	10	–
CC(=O)OCC1=C(C(=O)O)N2C(=O)[C@@](NC=O)(NC(=O)CSCC#N)[C@H]2SC1 [Example 51, 7β-[2-(Cyanomethylthio)acetamido]-7α-formamidocephalosporanic acid, sodium salt]	25	–
CC(=O)OCC1=C(C(=O)O)N2C(=O)[C@@](NC=O)(NC(=O)C(NC(N)=O)c3cccs3)[C@H]2SC1 (single isomer, unassigned) [Example 52 (Isomer 1), 7β-[2-[(Aminocarbonyl)amino]-2-(thien-2-yl)acetamido]-7α-formamidocephalosporanic acid, sodium salt (Isomer 1)]	–	125
CC1(C)S[C@H]2N(C(=O)[C@@]2(NC=O)NC(=O)C(C(=O)O)c2ccccc2)[C@H]1C(=O)O (stereo partly drawn) [Example 2, 6α-Formamido-6β-(2-carboxy-2-phenylacetamido)penicillanic acid, di-sodium salt]	50	–
CCN1CCN(C(=O)N[C@H](C(=O)N[C@]2(NC=O)C(=O)N3C(C(=O)O)=C(COC(C)=O)CS[C@@H]32)c2cccs2)C(=O)C1=O [Example 45, 7β-[L-2-[(4-Ethyl-2,3-dioxopiperazin-1-yl)carbonylamino]-2-(thien-2-yl)acetamido]-7α-formamidocephalosporanic acid, sodium salt]	0.25	–
Cc1nnc(SCC2=C(C(=O)O)N3C(=O)[C@@](NC=O)(NC(=O)Cc4cccs4)[C@H]3SC2)s1 [Example 56, 7α-Formamido-7β-[2-(thien-2-yl)acetamido]-3-[(2-methyl-1,3,4-thiadiazol-5-yl)thiomethyl]ceph-3-em-4-carboxylate acid, sodium salt]	25	–
CCN1CCN(C(=O)N[C@@H](C(=O)N[C@]2(NC=O)C(=O)N3[C@@H](C(=O)O)C(C)(C)S[C@@H]32)c2ccccc2)C(=O)C1=O [Example 4, 6α-Formamido-6β-[D-2-[(4-ethyl-2,3-dioxopiperazin-1-yl)carbonylamino]-2-phenylacetamido]penicillanic acid, sodium salt]	0.2	–
CCN1CCN(C(=O)N[C@H](C(=O)N[C@]2(NC=O)C(=O)N3C(C(=O)O)=C(COC(C)=O)CS[C@@H]32)c2ccc(O)cc2)C(=O)C1=O [Example 40, 7β-[L-2-[(4-Ethyl-2,3-dioxopiperazin-1-yl)carbonylamino]-2-(4-hydroxyphenyl)acetamido]-7α-formamidocephalosporanic acid, sodium salt]	100	–
CC1(C)S[C@H]2N(C(=O)[C@@]2(NC=O)NC(=O)[C@H](N)c2ccccc2)[C@H]1C(=O)O [Example 8, 6α-Formamido-6β-(D-2-amino-2-phenylacetamido)penicillanic acid]	25 (≈ 63.7 µM)	–
CC1(C)S[C@H]2N(C(=O)[C@@]2(NC=O)NC(=O)[C@H](NC(=O)N2CCNC2=O)c2ccc(O)cc2)[C@H]1C(=O)O [Example 16, 6α-Formamido-6β-[D-2-(2-oxoimidazolidin-1-ylcarbonylamino)-2-(4-hydroxyphenyl)acetamido]penicillanic acid, sodium salt]	0.5	–
CC(=O)OCC1=C(C(=O)O)N2C(=O)[C@@](NC=O)(NC(=O)Cc3csc(N)n3)[C@H]2SC1 [Example 46, 7β-[2-(2-Aminothiazol-4-yl)acetamido]-7α-formamidocephalosporanic acid, trifluoroacetic acid salt]	100	–
CN(C(=O)C=Cc1ccccc1)C(=O)N[C@@H](C(=O)N[C@]1(NC=O)C(=O)N2[C@@H](C(=O)O)C(C)(C)S[C@@H]21)c1ccc(O)cc1 [Example 17, 6α-Formamido-6β-[D-2-(3-cinnamoyl-3-methylureido)-2-(4-hydroxyphenyl)acetamido]penicillanic acid, sodium salt]	2.5	–
CC1(C)S[C@H]2N(C(=O)[C@@]2(NC=O)NC(=O)[C@H](N)c2ccc(O)cc2)[C@H]1C(=O)O [Example 9, 6α-Formamido-6β-[D-2-amino-2-(4-hydroxyphenyl)acetamido]penicillanic acid]	50 (≈ 122 µM)	–
CCN1CCN(C(=O)N[C@@H](C(=O)N[C@]2(NC=O)C(=O)N3[C@@H](C(=O)O)C(C)(C)S[C@@H]32)[C@H](C)OCc2ccccc2)C(=O)C1=O [Example 30, 6β-[(2R,3S)-3-Benzyloxy-2-[(4-ethyl-2,3-dioxopiperazin-1-yl)carbonylamino]butyramido]-6α-formamidopenicillanic acid, sodium salt]	100	–
CC1(C)S[C@H]2N(C(=O)[C@@]2(NC=O)NC(=O)[C@H](NC(=O)Nc2cc3ccccc3oc2=O)c2ccc(O)cc2)[C@H]1C(=O)O [Example 47, 6β-[D-2-[3-(Coumarin-3-yl)ureido]-2-(4-hydroxyphenyl)acetamido]-6α-formamidopenicillanic acid, sodium salt]	100	–
CC1(C)S[C@H]2N(C(=O)[C@@]2(NC=O)NC(=O)COc2ccccc2)[C@H]1C(=O)O [Example 1, 6α-Formamido-6β-phenoxyacetamido penicillanic acid sodium salt]	> 100	–
CN(C(=O)C=Cc1ccccc1)C(=O)N[C@@H](C(=O)N[C@]1(NC=O)C(=O)N2[C@@H](C(=O)O)C(C)(C)S[C@@H]21)c1ccccc1 [Example 10, 6α-Formamido-6β-[D-2-(3-cinnamoyl-3-methylureido)-2-phenylacetamido]penicillanic acid, sodium salt]	1	–
CC1(C)S[C@H]2N(C(=O)[C@@]2(NC=O)NC(=O)[C@H](NC(=O)Nc2cnc(Nc3ccccc3)nc2O)c2ccccc2)[C@H]1C(=O)O [Example 7, 6α-Formamido-6β-[D-2-(2-phenylamino-4-hydroxypyrimidin-5-ylureido)-2-phenylacetamido]penicillanic acid, di-sodium salt]	5	–
CCN1CCN(C(=O)N[C@@H](C(=O)N[C@]2(NC=O)C(=O)N3[C@@H](C(=O)O)C(C)(C)S[C@@H]32)c2ccc(OC(C)=O)c(OC(C)=O)c2)C(=O)C1=O [Example 18, 6β-[D-2-[(4-Ethyl-2,3-dioxopiperazin-1-yl)carbonylamino]-2-(3,4-diacetoxyphenyl)acetamido]-6α-formamidopenicillanic acid, sodium salt]	0.5	–
CC1(C)S[C@H]2N(C(=O)[C@@]2(NC=O)NC(=O)[C@H](NC(=O)Nc2coc3ccccc3c2=O)c2ccc(O)cc2)[C@H]1C(=O)O [Example 48, 6β-[D-2-[3-(4-Oxo-4H-1-benzopyran-3-yl)ureido]-2-(4-hydroxyphenyl)acetamido]-6α-formamidopenicillanic acid, sodium salt]	50	–
Cn1nnnc1SCC1=C(C(=O)O)N2C(=O)[C@@](NC=O)(NC(=O)Cc3cccs3)[C@H]2SC1 [Example 53, 7α-Formamido-7β-[2-(thien-2-yl)acetamido]-3-[(1-methyl-1H-tetrazol-5-yl)thiomethyl]ceph-3-em-4-carboxylic acid, sodium salt]	10	–
